Experimental data published in the NIST ThermoML archive (doi:10.1016/j.fluid.2011.01.007).

Tests used:
[1] = 298.15 K; 101.33 kPa; Liquid; Vibrating tube method
[2] = refractive index (Na D-line) (dimensionless); settings: 298.15 K; 101.33 kPa; Liquid; Standard Abbe refractometry
[3] = xn = mol fraction of the nth substance listed; settings: 298.15 K, 101 kPa, Liquid, Vibrating tube method
[4] = refractive index (Na D-line) (dimensionless); xn = mol fraction of the nth substance listed; settings: 298.15 K, 101 kPa, Liquid, Standard Abbe refractometry

c1ccccc1 [benzene]
Settings | mass density [kg/m3] | refractive index
[1] | 873.57 | –
[2] | – | 1.49764

COC(=O)OC [dimethyl carbonate]
Settings | mass density [kg/m3] | refractive index
[1] | 1063.04 | –
[2] | – | 1.36654

COC(=O)OC [dimethyl carbonate] + Cc1ccccc1
Settings | mass density, [3] [kg/m3] | refractive index, [4]
x1 = 0.0496 | 869.6 | 1.4883
x1 = 0.0998 | 877.39 | 1.4827
x1 = 0.2001 | 893.69 | 1.4715
x1 = 0.3003 | 910.85 | 1.4597
x1 = 0.3998 | 928.88 | 1.4475
x1 = 0.5002 | 948 | 1.4352
x1 = 0.5999 | 968.16 | 1.4224
x1 = 0.6999 | 989.62 | 1.4091
x1 = 0.7998 | 1012.35 | 1.3954
x1 = 0.8988 | 1036.61 | 1.3814
x1 = 0.9487 | 1049.29 | 1.3741

COC(=O)OC [dimethyl carbonate] + c1ccccc1
Settings | mass density, [3] [kg/m3] | refractive index, [4]
x1 = 0.0518 | 882.09 | 1.4902
x1 = 0.0988 | 889.99 | 1.4836
x1 = 0.1995 | 907.42 | 1.4699
x1 = 0.2994 | 925.15 | 1.4565
x1 = 0.401 | 943.6 | 1.4431
x1 = 0.5002 | 962.07 | 1.4301
x1 = 0.6003 | 981.15 | 1.417
x1 = 0.699 | 1000.51 | 1.4044
x1 = 0.7981 | 1020.48 | 1.3918
x1 = 0.9 | 1041.49 | 1.3789
x1 = 0.9497 | 1052 | 1.3727

CCO [ethanol]
Settings | mass density [kg/m3] | refractive index
[1] | 785.33 | –
[2] | – | 1.35928

Cc1ccccc1 [toluene]
Settings | mass density [kg/m3] | refractive index
[1] | 862.19 | –
[2] | – | 1.49397
